These results are taken from article PMC6600263, “Neuroprotective Effects of Red Ginseng Saponins in Scopolamine-Treated Rats and Activity Screening Based on Pharmacokinetics” (Molecules, 2019).

Where two headings read alike, the source gives them in different places.

In general, MRT refers to the average time that molecules of a dose stay in the body.

The test system of series [1] is scopolamine-induced learning ability impairment. The arrangement: method as in PMID 24503167. As to conditions: rats; cited from earlier work.
Series [2] can be described thus: pharmacokinetics of 16 ginsenosides in rat plasma after oral administration of RGS. The class given is in vivo. The method, then: The SD rats were randomly allocated into two groups, i.e., normal group and SA-treated group.
Blood samples were collected from the postocular vein at 0.083, 0.25, 0.5, 1, 2, 3, 4, 6, 8, 12 and 24 h after SA injection. Blood sample immediately was centrifuged at 18,000 rpm for 10 min. Plasma was withdrawn (0.15 mL) and diluted with 0.3 mL of acetonitrile and 20 µL of the IS (6 µg/mL). After 30 min, the mixture was clarified by centrifugation at 18,000 rpm for 10 min at 4 °C. The supernatant was dried under a stream of N2, and the residue was dissolved in 0.1 mL of methanol and stored at −20 °C for further analysis.
The UPLC-MS/MS system (Waters Xeve TQ, Waters, Cork, Ireland) with a column C18 (ACQUITY, 1.7 μm, 2.1 × 50 mm, Waters, Cork, Ireland) were adopted at 35 °C. Water (A) and acetonitrile (B) were used as mobile phases at a flow rate of 0.4 mL/min. The treatment of elution was performed according to following pattern: 10% B for 0–5.0 min; 10→15% B for 5.0–8.0 min; 15→25% B for 8.0–12.0 min; 25→40% for 12.0–20.0 min; 40→50% B for 20.0–25.0 min; 50→65% B for 25.0–30.0 min. With regard to mass detection, the negative mode of electrospray ionization source was adopted. The optimized parameters of multiple reactions monitoring (MRM) system including collision energy, Q1 Pre Bias, Q3 Pre Bias, collision energy and MRM transition of the 16 ginsenosides are shown in Table 1.
Based on a non-compartmental method, WinNonlin software (Phoenix, version 6.1) was employed to calculate the pharmacokinetic parameters. The statistical difference between groups was analyzed by One-Way ANOVA analysis using SPSS Version 17.0. (SPSS Inc., Chicago, IL, USA). The difference between groups was regarded significant when p < 0.05. We first normalized the pharmacokinetic data and then visualized them based on principal component analysis (PCA).

The test system of series [3] is recognition deficits induced by cyproheptadine. The arrangement: method as in PMID 23717153. The settings on record: rats; cited from earlier work.
[4] abbreviates: SD, rat, plasma, po, 100 mg/kg, model (scopolamine 1 mg/kg i.p.-treated) rats, oral RGS single dose 100 mg/kg, plasma, mean ± S.D., n = 5, read-out: C Max.
Where [5] appears, read: SD, rat, plasma, po, 100 mg/kg, model (scopolamine 1 mg/kg i.p.-treated) rats, oral RGS single dose 100 mg/kg, plasma, mean ± S.D., n = 5, read-out: MRT.
Where [6] appears, read: SD, rat, plasma, po, 100 mg/kg, model (scopolamine 1 mg/kg i.p.-treated) rats, oral RGS single dose 100 mg/kg, plasma, mean ± S.D., n = 5, read-out: T1/2 (converted).
[7] abbreviates: SD, rat, plasma, po, 100 mg/kg, model (scopolamine 1 mg/kg i.p.-treated) rats, oral RGS single dose 100 mg/kg, plasma, mean ± S.D., n = 5, read-out: T Max.
Where [8] appears, read: SD, rat, plasma, po, 100 mg/kg, normal rats, oral RGS single dose 100 mg/kg, plasma, mean ± S.D., n = 5, read-out: C Max.
Setting [9] is: SD, rat, plasma, po, 100 mg/kg, normal rats, oral RGS single dose 100 mg/kg, plasma, mean ± S.D., n = 5, read-out: MRT.
The mark [10] stands for this setting: SD, rat, plasma, po, 100 mg/kg, normal rats, oral RGS single dose 100 mg/kg, plasma, mean ± S.D., n = 5, read-out: T1/2 (converted).
Where [11] appears, read: SD, rat, plasma, po, 100 mg/kg, normal rats, oral RGS single dose 100 mg/kg, plasma, mean ± S.D., n = 5, read-out: T Max.
The mark [12] stands for this setting: model (scopolamine 1 mg/kg i.p.-treated) rats, oral RGS single dose 100 mg/kg, plasma, mean ± S.D., n = 5.
[13] abbreviates: normal rats, oral RGS single dose 100 mg/kg, plasma, mean ± S.D., n = 5.
The mark [14] stands for this setting: SD, rat, in vivo, po, 100 mg/kg.

As for `CC(C)=CCCC(C)(OC1OC(COC2OC(CO)C(O)C(O)C2O)C(O)C(O)C1O)C1CCC2(C)C1C(O)CC1C3(C)CCC(OC4OC(CO)C(O)C(O)C4OC4OC(CO)C(O)C(O)C4O)C(C)(C)C3CCC12C` (centres unmarked) [Rb1], the “effect on scopolamine-induced learning ability impairment” value in series [1] is “do not”. In addition, the Cmax in series [2] (setting [4]) came out at 34.8 ± 2.7 ng/g; in series [2] (setting [8]), 35.2 ± 4.9 ng/g. Besides, the mean residence time (MRT) came out at 6.5 ± 1.5 h in series [2] (setting [5]) and 6.2 ± 1.8 h in series [2] (setting [9]). For the same molecule, the figures for the half-life in series [2] (setting [6]) and in series [2] (setting [10]) were 288 ± 66 min and 258 ± 48 min, respectively. Moreover, the Tmax in series [2] (setting [7]) is 4.1 ± 0.8 h; in series [2] (setting [11]) it was 4.6 ± 1.1 h. The “AUC 0-t” value in series [2] (setting [12]) was determined as 298.9 ± 11.7 ng·h/g; in series [2] (setting [13]), 255.6 ± 7.4 ng·h/g.

For the molecule `CC(C)=CCCC(C)(OC1OC(CO)C(O)C(O)C1O)C1CCC2(C)C1C(O)CC1C3(C)CCC(OC4OC(CO)C(O)C(O)C4OC4OC(CO)C(O)C(O)C4O)C(C)(C)C3CCC12C` (centres unmarked) [Rd], the “effect on scopolamine-induced learning ability impairment” value in series [1] is listed as “do not”. The results for the Cmax in series [2] (setting [4]) and in series [2] (setting [8]) were 45.6 ± 2.9 ng/g and 47.5 ± 2.6 ng/g, respectively. Also, the mean residence time (MRT) in series [2] (setting [5]) was 7.7 ± 1.3 h; in series [2] (setting [9]) it was 8.6 ± 1.2 h. Further, the results for the half-life in series [2] (setting [6]) and in series [2] (setting [10]) were 372 ± 114 min and 330 ± 336 min, respectively. The Tmax came to 2 ± 0.8 h in series [2] (setting [7]) and 1.5 ± 0.4 h in series [2] (setting [11]). For the same molecule, the “AUC 0-t” value came out at 331.2 ± 11.2 ng·h/g in series [2] (setting [12]) and 321.5 ± 9.1 ng·h/g in series [2] (setting [13]).

In the case of `CC(C)=CCCC(C)(OC1OC(CO)C(O)C(O)C1O)C1CCC2(C)C1C(O)CC1C3(C)CCC(O)C(C)(C)C3C(OC3OC(CO)C(O)C(O)C3O)CC12C` (centres unmarked) [Rg1], the “effect on scopolamine-induced learning ability impairment” value in series [1] was “improves”. The Cmax in series [2] (setting [4]) amounted to 32.2 ± 2.1 ng/g; in series [2] (setting [8]), 20.5 ± 2.5 ng/g. Besides, the MRT in series [2] (setting [5]) amounted to 16.5 ± 3.2 h; in series [2] (setting [9]), 15.6 ± 2.1 h. Further, the results for the half-life in series [2] (setting [6]) and in series [2] (setting [10]) were 612 ± 72 min and 576 ± 90 min, respectively. Besides, the figures for the Tmax in series [2] (setting [7]) and in series [2] (setting [11]) were 4 ± 0.9 h and 4 ± 1.2 h, respectively. The figures for the “AUC 0-t” value in series [2] (setting [12]) and in series [2] (setting [13]) were 664.5 ± 15.2 ng·h/g and 568.9 ± 10.3 ng·h/g, respectively.

On to `CC(C)=CCC[C@](C)(O)[C@H]1CC[C@]2(C)[C@@H]1[C@H](O)C[C@@H]1[C@@]3(C)CC[C@H](O)C(C)(C)[C@@H]3[C@@H](O[C@@H]3O[C@H](CO)[C@@H](O)[C@H](O)[C@H]3O[C@@H]3O[C@@H](C)[C@H](O)[C@@H](O)[C@H]3O)C[C@]12C` [Rg2, Ginsenoside Rg2], for which the “effect on recognition deficits induced by cyproheptadine” value in series [3] is reported as “improves”. In series [2] (setting [14]), the “C Max” value is 26.3 ± 4.8 ng/g, the mean residence time MRT was found to be 26.5 ± 3.6 h and the T1/2 was determined as 18.9 ± 1.6 h. This molecule came in with a Cmax in series [2] (SD, rat, in vivo, po, 100 mg/kg, C Max) of 15.3 ± 5.6 ng/g. The molecule also yielded a mean residence time (MRT) in series [2] (SD, rat, in vivo, po, 100 mg/kg, MRT) of 22.3 ± 1.4 h. Besides, the half-life in series [2] (SD, rat, in vivo, po, 100 mg/kg, T1/2) was 1190 ± 150 min. For the same molecule, the Tmax in series [2] (SD, rat, in vivo, po, 100 mg/kg, T Max) is 1.5 ± 0.8 h.
